Experimental data reported in ChEMBL document CHEMBL3272086, “Antimalarials. 9. Methylthio- and methylsulfonyl-substituted 9-phenanthrenemethanols” (1976).
The source made the active and inactive calls. No cut-off for these calls is given here.

How the values were obtained:
Plasmodium berghei [1] = experiment: Antimalarial activity against Plasmodium berghei infected in mouse assessed as change in mean survival time at 20 mg/kg, sc administered 72 hrs post infection as single dose (reference value: 6.2 days); type: functional; settings: route subcutaneous
Plasmodium berghei [2] = experiment: Antimalarial activity against Plasmodium berghei infected in mouse assessed as change in mean survival time at 40 mg/kg, sc administered 72 hrs post infection as single dose (reference value: 6.2 days); type: functional; settings: route subcutaneous
Plasmodium berghei [3] = experiment: Antimalarial activity against Plasmodium berghei infected in mouse assessed as change in mean survival time at 80 mg/kg, sc administered 72 hrs post infection as single dose (reference value: 6.2 days); type: functional; settings: route subcutaneous
Plasmodium berghei [4] = experiment: Antimalarial activity against Plasmodium berghei infected in mouse assessed as change in mean survival time at 160 mg/kg, sc administered 72 hrs post infection as single dose (reference value: 6.2 days); type: functional; settings: route subcutaneous
Plasmodium berghei [5] = experiment: Antimalarial activity against Plasmodium berghei infected in mouse assessed as cure from disease at 320 mg/kg, sc administered 72 hrs post infection as single dose measured post 60 days; type: functional, organism-based; set-up: dose 320 mg/kg
Plasmodium berghei [6] = experiment: Antimalarial activity against Plasmodium berghei infected in mouse assessed as cure from disease at 160 mg/kg, sc administered 72 hrs post infection as single dose measured post 60 days; type: functional, organism-based; set-up: dose 160 mg/kg
Plasmodium berghei [7] = experiment: Antimalarial activity against Plasmodium berghei infected in mouse assessed as change in mean survival time at 320 mg/kg, sc administered 72 hrs post infection as single dose (reference value: 6.2 days); type: functional; settings: route subcutaneous

Row | SMILES | MST (Plasmodium berghei [1]) [days] | MST (Plasmodium berghei [2]) [days] | MST (Plasmodium berghei [3]) [days] | MST (Plasmodium berghei [4]) [days] | Activity (Plasmodium berghei [5]) | Activity (Plasmodium berghei [6]) | MST (Plasmodium berghei [7]) [days]
1 | CCCCN(CCCC)CC(O)c1cc2cc(SC)ccc2c2cc(SC)ccc12.Cl (stereo not given) | 0.7 | 5.9 | 11.5 | 16.1 | Active |  | 
2 | CCCCN(CCCC)CC(O)c1cc2cc(SC)ccc2c2cc(Cl)c(Cl)cc12.Cl (stereo not given) | 9.1 | 10.3 |  |  |  | Active | 
3 | CCCCN(CCCC)CC(O)c1cc2cc(Br)ccc2c2cc(S(C)(=O)=O)ccc12.Cl (stereo not given) | 0.6 | 1.2 | 10.8 |  |  |  | 
4 | CCCCN(CCCC)CC(O)c1cc2cc(SC)ccc2c2c(Cl)c(Cl)ccc12.Cl (stereo not given) | 9.3 | 10.7 |  |  |  |  | 
5 | CCCCN(CCCC)CC(O)c1cc2cc(S(C)(=O)=O)ccc2c2cc(S(C)(=O)=O)ccc12.Cl (stereo not given) |  | 0.1 | 0.3 | 0.3 |  |  | 0.3
6 | CCCCN(CCCC)CC(O)c1cc2cc(Cl)cc(Cl)c2c2cc(SC)ccc12.Cl (stereo not given) | 10.5 |  |  |  | Active | Active | 
7 | CCCCN(CCCC)CC(O)c1cc2cc(S(C)(=O)=O)ccc2c2c(Cl)c(Cl)ccc12.Cl (stereo not given) | 4.7 | 7.7 | 14.9 |  | Active |  | 
8 | CCCCN(CCCC)CC(O)c1cc2cc(Br)ccc2c2cc(SC)ccc12.Cl (stereo not given) | 2.8 | 8.6 | 9.5 |  |  |  | 
9 | CCCCN(CCCC)CC(O)c1cc2cc(S(C)(=O)=O)ccc2c2cc(Cl)c(Cl)cc12.Cl (stereo not given) | 4.9 | 8.5 |  |  | Active |  | 
